# Reference: BindingDB's records for PubMed 8394902 (Georgetown University, 1993)
# Several values for one entry are separate records, joined by “and”; a condition that tells them apart may be missing. Identical values can stand only once.
# Biological target: Gamma-aminobutyric acid receptor subunit alpha-1 (Rattus norvegicus, UniProt P62813)
# Sequence (P62813 whole entry): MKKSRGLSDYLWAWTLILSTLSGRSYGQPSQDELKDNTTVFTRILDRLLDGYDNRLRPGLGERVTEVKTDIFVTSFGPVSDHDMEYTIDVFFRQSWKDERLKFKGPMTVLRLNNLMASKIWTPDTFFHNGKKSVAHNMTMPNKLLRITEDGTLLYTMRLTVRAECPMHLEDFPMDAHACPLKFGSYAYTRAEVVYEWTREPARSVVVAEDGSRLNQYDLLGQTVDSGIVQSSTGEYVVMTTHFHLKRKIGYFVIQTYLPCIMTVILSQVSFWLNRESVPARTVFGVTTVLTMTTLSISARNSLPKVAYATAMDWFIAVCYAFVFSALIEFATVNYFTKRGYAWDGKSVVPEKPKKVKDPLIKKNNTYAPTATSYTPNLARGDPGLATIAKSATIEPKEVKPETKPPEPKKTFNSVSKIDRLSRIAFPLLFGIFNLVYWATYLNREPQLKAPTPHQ
smiles,measurement,value
Cc1nnc2n1-c1ccc(Cl)cc1C(c1ccccc1)=NC2,Ki,21 nM and 65 nM
